Results as given in patent publication US5185358A, “3-heteroatom containing urea and thiourea ACAT inhibitors” (Warner-Lambert Co., priority 1991, dated 1993).

Tests used:
[1] = biological target: T1, acyl-CoA:cholesterol acyltransferase (ACAT) (Oryctolagus cuniculus, UniProt G1SFD9); assay: In vitro ACAT inhibition: radiolabeled cholesterol oleate formed from radiolabeled oleic acid in rabbit intestinal microsomes; assay type: biochemical; settings: concentration required to inhibit 50% activity of the enzyme
T1 sequence (G1SFD9 1-524): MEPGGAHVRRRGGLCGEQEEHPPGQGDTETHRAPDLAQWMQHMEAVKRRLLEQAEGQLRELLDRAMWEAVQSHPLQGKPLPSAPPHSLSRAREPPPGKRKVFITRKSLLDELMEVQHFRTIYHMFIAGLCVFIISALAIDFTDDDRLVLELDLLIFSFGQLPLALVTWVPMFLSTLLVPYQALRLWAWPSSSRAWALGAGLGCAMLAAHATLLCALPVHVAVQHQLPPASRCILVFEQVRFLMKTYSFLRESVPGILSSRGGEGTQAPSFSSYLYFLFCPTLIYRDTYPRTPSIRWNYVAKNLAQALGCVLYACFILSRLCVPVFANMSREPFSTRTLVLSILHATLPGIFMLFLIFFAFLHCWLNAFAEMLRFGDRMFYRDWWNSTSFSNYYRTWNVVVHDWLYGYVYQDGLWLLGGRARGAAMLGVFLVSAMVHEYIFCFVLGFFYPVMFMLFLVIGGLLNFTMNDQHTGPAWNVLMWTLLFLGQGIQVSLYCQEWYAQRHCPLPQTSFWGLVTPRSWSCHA
Description: The ability of representative compounds of the present invention to inhibit ACAT was measured using an in vitro test more fully described by Field, F. J. and Salone, R. G., in Biochemica et Biophysica 712:557-570 (1982). The test assesses the ability of a test compound to inhibit the acylation of cholesterol by oleic acid by measuring the amount of radiolabeled cholesterol oleate formed from radiolabeled oleic acid in a tissue preparation containing rabbit intestinal microsomes.

[2] = In vivo screen designated APCC: blood cholesterol in rats on chow supplemented with peanut oil, cholesterol and cholic acid; settings: cholesterol in blood, male Sprague-Dawley rats, oral, 30 milligrams per kilogram, single dose 4 PM, blood samples 8 AM next day, vs vehicle control (CMC/Tween); for change in vivo at 30 mg/kg: Rattus norvegicus, 16 h, read-out: % Change (mg/dl)
Description: In one in vivo screen designated APCC, male Sprague-Dawley rats (200 to 225 g) were randomly divided into treatment groups and dosed orally at 4 PM with either vehicle (CMC/Tween) or suspensions of test compounds in vehicle. The control group received vehicle alone. Immediately after dosing, all animals received ad libitum a chow diet supplemented with peanut oil (5.5%), cholesterol (1.5%) and cholic acid (0.5%). The next day the animals were sacrificed at 8 AM to obtain blood samples for cholesterol analysis using standard procedures. Statistical differences between mean cholesterol values for the same vehicle were determined using analysis of variance followed by Fisher's least significant test. The compounds were administered at 30 milligrams per kilogram of body weight.

Row | Compound | IC50 [1] [nM] | change in vivo at 30 mg/kg [2] [%] | % Change (mg/dl) [2] [%]
1 | CCCCCCCCCCCc1nc(NC(=O)Nc2c(C(C)C)cccc2C(C)C)n[nH]1 [Example 2, N-[2,6-bis(1-methylethyl)phenyl]-N'-(5-undecyl-1H-1,2,4-triazol-3-yl)urea] | > 5000 | -31 | 
2 | CCCCCCCCCCCCn1cnc(NC(=O)Nc2c(C(C)C)cccc2C(C)C)n1 [Example 11, N-[2,6-bis(1-methylethyl)phenyl]-N'-(1-dodecyl-1H-1,2,4-triazol-3-yl)urea] | 1500 | -30 | 
3 | CCCCCCCCCCCCC[S+]([O-])c1nc(NC(=O)Nc2c(C(C)C)cccc2C(C)C)n[nH]1 (stereo not shown) [Example 16, N-[2,6-Bis(1-methylethyl)phenyl]-N'-[5-(tridecylsulfinyl)-1H-1,2,4-triazol-3-yl]urea] |  | -6 | 
4 | CCCCCCCCCCCn1cnnc1NC(=O)Nc1c(C(C)C)cccc1C(C)C [Example 9, N-[2,6-bis(1-methylethyl)phenyl]-N'(4-undecyl-1,2,4-triazol-3-yl)urea] | 670 | -21 | 
5 | CCCCCCCc1nnc(NC(=O)Nc2c(C(C)C)cccc2C(C)C)s1 [Example 20, N-[2,6-bis(1-methylethyl)phenyl]-N'-(5-heptyl-1,3,4-thiadiazol-2-yl)urea] | 400 | -25 | 
6 | CCCCCCCCCCCCCc1nnc(NC(=O)Nc2c(C(C)C)cccc2C(C)C)s1 [Example 22, N-[2,6-bis(1-methylethyl)phenyl]-N'-(5-tridecyl-1,3,4-thiadiazol-2-yl)urea] |  | -8 | 
7 | CCCCCCCCCCCCCc1nc(NC(=O)Nc2c(C(C)C)cccc2C(C)C)no1 [Example 26, N-[2,6-bis(1-methylethyl)phenyl]-N'-[5-tridecyl-1,2,4-oxadiazol-3-yl]urea] | 7 |  | 
8 | CCCCCCCCCc1nnc(NC(=O)Nc2c(C(C)C)cccc2C(C)C)s1 [Example 21, N-[2,6-bis(1-methylethyl)phenyl]-N'-(5-nonyl-1,3,4-thiadiazol-2-yl)urea] |  | -45 | 
9 | CCCCCCCCCCCCCS(=O)(=O)c1nnc(NC(=O)Nc2c(C(C)C)cccc2C(C)C)[nH]1 [Example 17] |  | -11 | 
10 | CCCCCCCCCCCCCc1nnc(NC(=O)Nc2c(C(C)C)cccc2C(C)C)o1 [Example 25, N-[2,6-bis(1-methylethyl)phenyl]-N'-(5-tridecyl-1,3,4-oxadiazol-2-yl)urea] |  | -62 | 
11 | CCCCCCCCCCCCCSc1nnc(NC(=O)Nc2c(C(C)C)cccc2C(C)C)n1C(C)=O [Example 14, 4-Acetyl-N-[[[2,6-bis(1-methylethyl)phenyl]amino]carbonyl]-5-(tridecylthio)-4H-1,2,4-triazol-3-amine] |  | -21 | 
12 | CCCCCCCCCCCCc1nc(NC(=O)Nc2c(C(C)C)cccc2C(C)C)n[nH]1 [Example 4, N-[2,6-bis(1-methylethyl)phenyl]-N'(5-dodecyl-1H-1,2,4-triazol-3-yl)urea] |  | 12 | 
13 | CCCCCCCCCCCCn1cnnc1NC(=O)Nc1c(C(C)C)cccc1C(C)C [Example 12, N-[2,6-bis(1-methylethyl)phenyl]-N'-(4-dodecyl-4H-1,2,4-triazol-3-yl)urea] |  | -28 | 
14 | CCCCCCCCCCCn1cnc(NC(=O)Nc2c(C(C)C)cccc2C(C)C)n1 [Example 8, N-[2,6-bis(1-methylethyl)phenyl]-N-(1-undecyl-1,2,4-triazol-3-yl)urea] | 110 | -39 | 
15 | CCCCCCCCCCCCCSc1nnc(NC(=O)Nc2c(C(C)C)cccc2C(C)C)[nH]1 [Example 15, N-[[[2,6-Bis(1-methylethyl)phenyl]amino]carbonyl]-5-(tridecylthio)-4H-1,2,4-triazol-3-amine] |  | 12 | 

The next lines start with results.

Row | IC50 [1] [nM] | Compound | change in vivo at 30 mg/kg [2] [%] | % Change (mg/dl) [2] [%]
16 | > 5000 | CC(C)c1cccc(C(C)C)c1NC(=O)Nc1nc(-c2ccccc2)ns1 [Example 24, N-[2,6-Bis(1-methylethyl)phenyl]-N'-(3-phenyl-1,2,4-thiadiazol-5-yl)urea] |  | 
17 | 39 | CCCCCCCCCCCc1nnc(NC(=O)Nc2c(C(C)C)cccc2C(C)C)s1 [Example 18, N-[2,6-bis(1-methylethyl)phenyl]-N'-(5-undecyl-1,3,4-thiadiazol-2-yl)urea] | -44 | 
18 | > 5000 | CCCCCCCCCCCCCCc1nc(NC(=O)Nc2c(C(C)C)cccc2C(C)C)n[nH]1 [Example 6] | -1 | 
19 | 600 | CCCCCCCCCCCCSc1nnc(NC(=O)Nc2c(C(C)C)cccc2C(C)C)n1C(C)=O [Example 13, 4-acetyl-N-[[[2,6-bis(1-methylethyl)phenyl]amino]carbonyl]-5-(dodecylthio)-4H-1,2,4-triazol-3-amine] | -41 | 
20 | 34 | CCCCCCCCCCCCc1nnc(NC(=O)Nc2c(C(C)C)cccc2C(C)C)s1 [Example 23, N-[2,6-bis(1-methylethyl)phenyl]-N'-(5-dodecyl-1,3,4-thiadiazol-2-yl)urea] | -32 | 
21 | 140 | CCCCCCCCCCCn1ncnc1NC(=O)Nc1c(C(C)C)cccc1C(C)C [Example 7, N-[2,6-bis(1-methylethyl)phenyl]-N'-(2-undecyl-2H-1,2,4-triazol-3-yl)urea] | -38 | 
22 | > 5000 | Cc1nnc(NC(=O)Nc2c(C(C)C)cccc2C(C)C)s1 [Example 19, N-[2,6-bis(1-methylethyl)phenyl]-N'-(5-methyl-1,3,4-thiadiazol-2-yl)urea] |  | 
23 | > 5000 | CCCCCCCCCCCc1nc(NC(=O)Nc2c(C(C)C)cccc2C(C)C)n(C(C)=O)n1 [Example 1, N-[2,6-bis(1-methylethyl)phenyl]-N'-(2-acetyl-5-undecyl-2H-1,2,4-triazol-3-yl)urea] | -38 | 
24 | > 5000 | CSc1nnc(NC(=O)Nc2c(C(C)C)cccc2C(C)C)[nH]1 [Example 27] |  | 
25 | 250 | N-[2,6-bis(1-methylethyl)phenyl]-N'-(2-dodecyl-1H-1,2,4-triazol-5-yl)urea [Example 10] |  | -36
